15 compounds from ChEMBL document CHEMBL1681769, “Tetrahydroquinolin-3-yl carbamate glucocorticoid receptor agonists with reduced PEPCK activation” (Bioorg Med Chem Lett, 2011) can be followed below.

Experiment [1] has as its target T1, Glucocorticoid receptor (Homo sapiens, UniProt P04150).
T1 sequence (P04150 whole entry): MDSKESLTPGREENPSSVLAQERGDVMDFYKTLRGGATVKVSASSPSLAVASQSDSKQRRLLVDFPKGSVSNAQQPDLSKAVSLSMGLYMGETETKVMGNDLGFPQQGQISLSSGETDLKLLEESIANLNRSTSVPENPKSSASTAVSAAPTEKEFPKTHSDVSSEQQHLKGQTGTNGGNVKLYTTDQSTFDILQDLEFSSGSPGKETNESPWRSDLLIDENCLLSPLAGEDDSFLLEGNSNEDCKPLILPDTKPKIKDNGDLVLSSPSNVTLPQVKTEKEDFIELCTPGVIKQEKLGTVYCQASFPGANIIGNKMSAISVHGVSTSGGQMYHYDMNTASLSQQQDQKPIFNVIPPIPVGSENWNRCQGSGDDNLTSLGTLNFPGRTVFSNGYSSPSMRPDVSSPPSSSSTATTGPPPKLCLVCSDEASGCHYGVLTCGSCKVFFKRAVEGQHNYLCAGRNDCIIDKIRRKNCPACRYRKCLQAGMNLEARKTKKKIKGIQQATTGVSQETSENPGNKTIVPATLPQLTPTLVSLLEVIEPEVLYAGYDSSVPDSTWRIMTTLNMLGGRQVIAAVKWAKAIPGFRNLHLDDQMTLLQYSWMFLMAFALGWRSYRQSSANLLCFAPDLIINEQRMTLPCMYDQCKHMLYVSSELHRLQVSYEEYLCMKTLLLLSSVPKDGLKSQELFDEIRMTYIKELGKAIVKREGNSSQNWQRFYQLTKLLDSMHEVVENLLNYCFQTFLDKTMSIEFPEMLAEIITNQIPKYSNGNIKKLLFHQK
Description: Displacement of radiolabeled Dexamethasone from GR

Experiment [2] addresses T1, Glucocorticoid receptor. Type of experiment: functional, cell-based, CV-1.
Description: Agonist activity at GR expressed in african green monkey CV1 cells transfected with luciferase gene linked to MMTV promoter assessed as induction of luciferase transactivation activity
Experiment [3] has as its target T1, Glucocorticoid receptor. Type of experiment: cell-based, HepG2.
Description: Transrepression activity at GR expressed in IL-1beta- and TNFalpha-stimulated HepG2 cells assessed as inhibition of NFKB- or AP-1 mediated E-selectin transcription by luciferase reporter gene assay
In experiment [4] the target is T1, Glucocorticoid receptor. The experiment is classed as cell-based, NHDF.
Description: Transrepression activity at GR expressed in NHDF cells assessed as IL-1beta-mediated IL-6 transcription by ELISA
Experiment [5] concerns the target T1, Glucocorticoid receptor. Type of experiment: functional, cell-based, H4IIEC3.
Description: Agonist activity at GR expressed in rat H4IIEC3 cells assessed as induction of PEPCK transactivation by luciferase reporter gene assay

For `C[C@H]1c2c(cc(F)c(-c3cccc4cc[nH]c34)c2F)NC(C)(C)[C@@H]1OC(=O)Nc1ccccc1`, the Ki in experiment [1] worked out at 6.2 nM. In experiment [2], this compound returned a concentration for a half-maximal effect (EC50) of 105 nM. Moreover, the IC50 in experiment [3] was 40 nM; in experiment [4], above 1000 nM.
On to `C[C@H]1c2c(cc(F)c(-c3cccc4c(Cl)c[nH]c34)c2F)NC(C)(C)[C@@H]1OC(=O)Nc1ccccc1`, for which the Ki in experiment [1] amounted to 7.6 nM. Moreover, the half-maximal effective concentration (EC50) in experiment [2] came to 7.6 nM; in experiment [5], 379 nM. Moreover, the half-inhibitory concentration (IC50) in experiment [3] is 9.1 nM; in experiment [4], 33 nM.
The compound `C[C@H]1c2c(cc(F)c(-c3cccc4cc[nH]c34)c2F)NC(C)(C)[C@@H]1OC(=O)N(C)c1ccccc1` registered a Ki in experiment [1] of 14.3 nM. The same compound registered a concentration for a half-maximal effect (EC50) in experiment [2] above 1000 nM. Besides, the IC50 in experiment [3] and in experiment [4] was above 1000 nM each time.
As to `COc1ccc(NC(=O)O[C@@H]2[C@@H](C)c3c(cc(F)c(-c4cccc5cc[nH]c45)c3F)NC2(C)C)cc1Cl`, the affinity in experiment [1] corresponds to a Ki of 11.6 nM. Also, the results for the EC50 in experiment [2] and in experiment [5] were 11 nM and 687 nM, respectively. Further, the half-maximal inhibitory concentration (IC50) in experiment [3] is 7.5 nM; in experiment [4], 31 nM.
The like results for `COc1ccc(NC(=O)O[C@@H]2[C@@H](C)c3c(cc(F)c(-c4cccc5c(Cl)c[nH]c45)c3F)NC2(C)C)cc1Cl` were, in that order, 6.7 nM, 5.8 nM, 283 nM, 5.7 nM and 12 nM.
As for `C[C@H]1c2c(cc(F)c(-c3cccc4cc[nH]c34)c2F)NC(C)(C)[C@@H]1OC(=O)Nc1ccc2c(c1)OCO2`, in experiment [1], the Ki came to 12.2 nM. Moreover, the EC50 was found to be 18 nM in experiment [2] and 874 nM in experiment [5]. Moreover, the IC50 was 8.5 nM in experiment [3] and 50 nM in experiment [4].
In the case of `C[C@H]1c2c(cc(F)c(-c3cccc4cc[nH]c34)c2F)NC(C)(C)[C@@H]1OC(=O)Nc1ccc(C#N)cc1`, the Ki in experiment [1] turned out to be 16.1 nM. Further, the midpoint of the response in experiment [2], the EC50, lay at 21 nM. Also, the values for the IC50 in experiment [3] and in experiment [4] were 10 nM and 16 nM, respectively.
In turn, `C[C@H]1c2c(cc(F)c(-c3cccc4c(Cl)c[nH]c34)c2F)NC(C)(C)[C@@H]1OC(=O)Nc1ccc(C#N)cc1` returned an inhibition constant Ki in experiment [1] of 13.7 nM. Also, the figures for the EC50 in experiment [2] and in experiment [5] were 5.1 nM and 272 nM, respectively. Also, the IC50 amounted to 8.1 nM in experiment [3] and 5 nM in experiment [4].
`C[C@H]1c2c(cc(F)c(-c3cccc4cc[nH]c34)c2F)NC(C)(C)[C@@H]1OC(=O)Nc1ccc(Cl)cc1`: the affinity in experiment [1] corresponds to a Ki of 70 nM. The compound further showed an EC50 in experiment [2] of 178 nM. For the same compound, the IC50 in experiment [3] came out at 44 nM; in experiment [4] it was 29 nM.
In experiment [1], `COC(=O)c1ccc(NC(=O)O[C@@H]2[C@@H](C)c3c(cc(F)c(-c4cccc5cc[nH]c45)c3F)NC2(C)C)cc1` returned an inhibition constant (Ki) of 30 nM. Besides, the EC50 in experiment [2] was 15 nM; in experiment [5], 267 nM. The IC50 amounted to 29 nM in experiment [3] and 16 nM in experiment [4].
Take `C[C@H]1c2c(cc(F)c(-c3cccc4cc[nH]c34)c2F)NC(C)(C)[C@@H]1OC(=O)Nc1ccc(N(C)C)cc1`: in experiment [1], the affinity corresponds to a Ki of 5.1 nM. The 50% effective concentration (EC50) was found to be 3.5 nM in experiment [2] and 361 nM in experiment [5]. In addition, the half-maximal inhibitory concentration (IC50) in experiment [3] amounted to 8.4 nM; in experiment [4], 39 nM.
In the case of `C[C@H]1c2c(cc(F)c(-c3cccc4cc[nH]c34)c2F)NC(C)(C)[C@@H]1O` (racemic), the response in experiment [5] was half-maximal at 98 nM (EC50). That is a double-digit nanomolar value.
Regarding `CNC(=O)O[C@@H]1[C@@H](C)c2c(cc(F)c(-c3cccc4cc[nH]c34)c2F)NC1(C)C` (racemic), affinity in experiment [1] was put at a Ki of 3 nM. Moreover, the EC50 in experiment [2] is 39 nM; in experiment [5] it was 199 nM. Also, the concentration for half-maximal inhibition (IC50) in experiment [3] was 10 nM; in experiment [4] it was above 1000 nM.
The like results for `CNC(=O)O[C@@H]1[C@@H](C)c2c(cc(F)c(-c3cccc4c(Cl)c[nH]c34)c2F)NC1(C)C` (racemic) were, in that order, 2.2 nM, 21 nM, 463 nM, 12 nM and 52 nM.
In turn, `C[C@H]1c2c(cc(F)c(-c3cccc4cc[nH]c34)c2F)NC(C)(C)[C@@H]1OC(=O)N1CCCCC1` (racemic) showed a Ki in experiment [1] of 132 nM. This compound yielded an EC50 in experiment [2] above 1000 nM. In experiment [3], this compound gave a half-maximal inhibitory concentration (IC50) above 1000 nM.

A word on the Ki: it is a dissociation constant, usually derived from enzyme kinetics or from competition with a known ligand. A lower Ki goes with tighter binding. Broadly, the EC50 is the concentration at which the effect is half-maximal. Low values mean greater potency, high ones weaker potency. A word on the IC50: it is the concentration needed to halve the response being measured. The low end stands for greater potency in that assay, the high end for weaker potency in that assay.
